Patent publication US7786176B2, “Vaginal treatment composition containing xylitol” (Kimberly-Clark Worldwide, Inc., priority 2005, dated 2010)
“Also recorded” adds a separate entry of the source.

Assays:
Type in all cases: cell-based
[1] = test system: Gardnerella vaginalis; test: Gardnerella vaginalis plate count after treatment with gel compositions (Example 6)
Method: Gardnerella vaginalis was obtained from the American Type Culture Collection (ATCC #14018). The culture medium was Casman's medium base (BD 229010) with 5% rabbit blood (ATCC medium 70).
Initially, eight (8) solutions were formed as set forth below in Table 4.
Samples 1-2 were prepared by dissolving the KELCOGEL® (0.07 grams) and/or xylitol (0.44 grams) into 10 milliliters of water heated to between 70° C. to 80° C. Samples 3-4 and 6 were formed by first autoclaving a gallic acid stock solution (0.75 grams of gallic acid/20 mL water), autoclaving, and then adding 200 microliters of sterile gallic acid (0.0075 grams) to each sterile solution. Sample 5 was formed by dissolving 0.44 grams of xylitol in deionized water, followed by autoclaving. Sample 7 was formed by dissolving 0.44 grams of xylitol in sterilized growth medium for Gardnerella vaginalis and then filtering. The amount of xylitol was selected to yield isotonic solutions. […]
Upon formation, 1 milliliter of each control or sample solution was then added into a culture tube, followed by the addition of 0.8 milliliters of growth medium for Gardnerella vaginalis. […] After 24 and 48 hours, the optical density was measured for each sample at wavelengths of 450 and 595 nanometers. […] The number of colonies on each plate was counted using ProtoCol® software from Synbiosis of Frederick, Md. […]

[2] = test system: Gardnerella vaginalis; test: Zone of inhibition on agar plates, Gardnerella vaginalis (Examples 8, 11)
Method: (§1) A microorganism culture of 10^5 cfu (colony forming units)/ml in a 1× phosphate buffered saline (PBS) solution (diluted from 10×PBS LIQUID CONCENTRATE from VWR Cat. No. EM-6507] was used. One milliliter of the solution was plated on proper agar plates, depending on which microorganism was being tested. The agar plates were incubated at 35° C. for 4 hours. Three 4-millimeter diameter wells were then punched in each agar plate. A test sample of 100 microliters of 5% xylitol in sterilized 2-N-morpholino ethane sulfonic buffer (0.1 M 2-[morpholino]-ethanesulfonic acid, 0.9% NaCl, pH 4.7, prepared from BupH™ MES Buffer Saline Pack from Cat. No. 28390, Pierce Biotechnology, Inc., Rockford, Ill.) was added to one well of each plate. Into each of the other two wells were added MES buffer and 1% benzyl quats (diluted from BARDAC.® 205M, from Lonza Inc., Fair Lawn, N.J.) as negative and positive controls, respectively. The plates were incubated overnight at 35° C.
(§2) The following day, the “zone of inhibition” for each sample was then measured for Gardnerella vaginalis and Lactobacillus acidophilus activity. The “zone of inhibition” is a circular zone formed around the agar plate in which the growth of the microorganism is inhibited. […] However, when growth is inhibited, a clear zone is observed. The diameter of this clear zone may thus be used as an indicator of antimicrobial effectiveness.
(§3) Sorbitol, glucose, and xylitol were tested as described in Example 8.

[3] = test system: Lactobacillus acidophilus; test: Zone of inhibition on agar plates, Lactobacillus acidophilus (Examples 8, 11)
Method: as §1, §2, §3

[4] = test system: Gardnerella vaginalis; test: Optical density growth test, Gardnerella vaginalis (Example 9); details: 2, 4, 6 and 24 hours, FIG. 5
Method: (§4) Test compounds were dissolved in culture media to form a suspension. Control or xylitol solutions (0.9 milliliters) were filtered and added into culture tubes, and to this was added 0.1 milliliter of either the Gardnerella vaginalis or Lactobacillus acidophilus suspension at a concentration of around 10^6 cfu/milliliter. The culture tubes were then incubated overnight at 37° C., whereafter the optical density was measured at 2, 4, 6 and 24 hours by pipetting 100 microliters of the control or sample solutions into 96-well microplates, and then using a ThermoMax Microplate Reader (Molecular Devices of Sunnyvale, Calif.) to obtain the optical density readings at 590 or 600 nm wavelengths. […] The inhibition effect remained evident throughout the 24-hour experimental period.

[5] = test system: Lactobacillus acidophilus; test: Optical density growth test, Lactobacillus acidophilus (Example 9); details: 2, 4, 6 and 24 hours, FIG. 7
Method: as §4

[6] = test system: Gardnerella vaginalis; test: Plate count after 6 hours treatment, Gardnerella vaginalis (Example 10); details: all five concentrations, 1-5%
Method: (§5) Test compounds were dissolved in culture media to form a suspension. Control or xylitol solutions (0.9 milliliters) were filtered and added into culture tubes. To these solutions, 0.1 milliliter of the Gardnerella vaginalis or Lactobacillus acidophilus suspension was then added at a concentration of around 10^6 cfu/milliliter. The culture tubes were incubated at 37° C. for 6 hours. The samples in the culture tubes were then diluted at 1, 10 and 100 times, and 100 microliters of each dilution was plated onto agar plates with WASP (Whitely Automatic Spiral Plate) spiral plating equipment from Don Whitely Scientific Limited, USA. The plates were incubated overnight at 35° C., and the numbers of colonies were counted on each plate by either ProtoCol® from Synbiosis, Frederick, Md., USA Whitely Scientific Limited, USA or by hand count. The results are shown below in Tables 7-8 and in FIG. 6.

[7] = test system: Lactobacillus acidophilus; test: Plate count after 6 hours treatment, Lactobacillus acidophilus (Example 10); details: 1% and 5% xylitol
Method: as §5

[8] = test system: Trichomonas vaginalis; test: Viable Trichomonas vaginalis cell count with xylitol (Example 12)
Method: Trichomonas vaginalis was obtained from the American Type Culture Collection (ATCC #30001). The culture medium was LYI-S-2 medium (ATCC medium 2154).
A sterile LYI-S-2 medium was prepared according to the manufacturer's instructions, and the pH of this medium was adjusted to pH 6.0 using 1 N HCl. Xylitol was then dissolved into the LYI-S-2 medium at concentrations of 0.5%, 3.0%, and 5.0% (wt/vol). 0.9 milliliters of xylitol and culture medium (as control) were also added into different culture tubes. Thereafter, 0.1 milliliter of Trichomonas vaginalis culture suspension (concentration of 1×10^6/milliliter) was added to each of the culture tubes, and then incubated at 35° C. on a 15 degree horizontal slant. The viable Trichomonas vaginalis cells in each tube were counted under a microscope after 24 and 48 hours. The above procedure was repeated four times for each concentration of xylitol and the control.

[9] = test system: Candida albicans; test: Candida albicans viable cell count with xylitol (Example 14); details: 24 hours; 1%, 2%, 3%, 4%, and 5.0% (wt/vol), FIG. 11
Method: A YM culture medium was prepared according to the manufacturer's instructions, and the pH of this medium was adjusted to pH 6.0 using 1 N HCl. Xylitol was then dissolved into the YM medium at concentrations of 1%, 2%, 3%, 4%, and 5.0% (wt/vol). 0.9 milliliters of the culture medium were also added into a different culture tube as a control. Thereafter, 0.1 milliliter of Candida albicans culture suspension (concentration of 1×10^6/milliliter) was added to each of the culture tubes, and then incubated at 37° C. The viable Candida albicans cells in each tube were counted under a microscope after 24 hours. The above procedure was repeated four times for each concentration and the control.

[10] = test system: Gardnerella vaginalis; test: Gardnerella vaginalis optical density with sugars and sugar derivatives (Example 15); details: 24 hours; 1.0% (wt/vol), FIG. 12
Method: A growth medium for Gardnerella vaginalis was prepared according to the manufacturer's instructions, and the pH of this medium was adjusted to pH 6.0 using 1 N HCl. D-ribose (99%, Calbiochem), D-arabinose (98%, Alfa Aesar), D-xylose (Aldrich), D-lyxose (99%, Avovado), D-arabitol (97%, Alfa Aesar), adonitol (99%, Alfa Aesar), xylitol (99%, Alfa Aesar), xylitol (98%, Danisco), and xylitol (98%, Aldrich) were then dissolved into the growth medium at a concentration of 1.0% (wt/vol). 0.9 milliliters of the culture medium was also added into a different culture tube as a control. Thereafter, 0.1 milliliter of Gardnerella vaginalis culture suspension (concentration of 1×10^6/milliliter) was added to each of the culture tubes, and then incubated overnight at 37° C., and the optical density was then measured after 24 hours at a wavelength of 595 nanometers. This was accomplished by pipetting 100 microliters of the control or sample solutions into 96-well microplates, and then using a ThermoMax Microplate Reader from Molecular Devices of Sunnyvale, Calif. to obtain the optical density readings. The results are depicted in FIG. 12.

[11] = 5% in MES buffer pH 4.7, 100 microliters per well
[12] = zone of inhibition testing, concentrations as in Tables 6 and 9

| SMILES | Average Plate Count ([1]; 24-hr samples, 4.4 wt/vol % xylitol in growth medium) | Effect on Gardnerella vaginalis growth ([1]; Example 6) | Zone of inhibition, Gardnerella vaginalis [2, 11] | Zone of inhibition, Gardnerella vaginalis ([2]; 10%) | Effect on Gardnerella vaginalis [2, 12] | Zone of inhibition, Lactobacillus acidophilus [3, 11] | Zone of inhibition, Lactobacillus acidophilus ([3]; 10%) | Effect on Lactobacillus acidophilus [3, 12] | Inhibition of Gardnerella vaginalis growth (optical density) [4] | Inhibition of Lactobacillus acidophilus growth (optical density) [5] | Inhibition of Gardnerella vaginalis growth compared to control [6] | Inhibition of Lactobacillus acidophilus growth [7] | Trichomonas vaginalis cell count versus control ([8]; 24 hours, 0.5%, 3.0%, and 5.0% (wt/vol), FIG. 8) | Trichomonas vaginalis cell count versus control ([8]; 48 hours, FIG. 9) | Live Trichomonas vaginalis cells ([8]; 48 hours, 3% and 5% xylitol) | Candida albicans cell count versus control [9] | Gardnerella vaginalis cell count versus control (optical density 595 nanometers) [10] |
| --- | --- | --- | --- | --- | --- | --- | --- | --- | --- | --- | --- | --- | --- | --- | --- | --- | --- |
| OC[C@@H](O)[C@H](O)[C@@H](O)CO [xylitol] | 2.40 × 10^4 | significant inhibition | 4 mm | 4 mm | inhibited; also recorded: inhibitory effect | 0 mm | 0 mm | did not affect the growth | significant inhibition | did not exhibit any significant inhibition | significant inhibition | did not exhibit any significant inhibition | significantly reduced | even more significant inhibitory effect | No live Trichomonas vaginalis cells were observed | significantly reduced | significantly reduced |
| O=C[C@H](O)[C@H](O)[C@H](O)CO [D-ribose] | – | – | – | – | – | – | – | – | – | – | – | – | – | – | – | – | significantly reduced |
